Measured values: patent publication US20070244103A1, “Novel Compounds Having an Anti-Bacterial Activity” (Morphochem Aktiengesellschaft Fur Kombinatorische Chemie, priority 2004, published 2007)

Test: MIC of the examples against various organisms
Assay type: cell-based
Conditions: against at least two of the above organisms (12-strain panel)
Method: The MIC (μg/ml) of the examples against various organisms was determined: A. baumannii ATCC19606, E. cloacae ATCC23355, E. coli ATCC25922, K. pneumoniae ATCC27736, P. mirabilis ATCC29906, P. aeruginosa ATCC27853, S. maltophilia ATCC13637, S. aureus ATCC43300, S. epidermidis ATCC14990, S. haemolyticus ATCC29970, E. faecalis ATCC29212 and E. faecium ATC19434.

Compound	MIC [µg/mL]
COc1ccc2ncc(Cl)c(C(O)CN3C4CCC3CC(NCc3cc5c(cc3F)SCC(=O)N5)C4)c2n1 (centres unmarked) [Example 28, 6-({8-[2-(3-Chloro-6-methoxy-[1,5]-naphthyridin-4-yl)-2-hydroxy-ethyl]-8-aza-bicyclo[3.2.1]oct-3-ylamino}-methyl)-7-fluoro-4H-benzo[1,4]thiazin-3-one]	≤ 2
COc1ccc2nccc(C(O)CN3C4CCC3CC(NCc3ccc5c(c3)OCO5)C4)c2n1 (single isomer, unassigned) [Example 9, 2-{3-[(Benzo[1,3]dioxol-5-ylmethyl)-amino]-8-aza-bicyclo[3.2.1]oct-8-yl}-1-(6-methoxy-[1,5]-naphthyridin-4-yl)-ethanol]	≤ 2
COc1cnc2cccc(C(O)CN3C4CCC3CC(NCc3ccc5nsnc5c3)C4)c2c1 (centres unmarked) [Example 40, 2-{3-[(Benzo[1,2,5]thiadiazol-5-ylmethyl)-amino]-8-aza-bicyclo[3.2.1]oct-8-yl}-1-(3-methoxy-quinolin-5-yl)-ethanol]	≤ 2
COc1ccc2ncc(Cl)c(C(O)CN3C4CCC3CC(NCc3ccc5c(c3)NC(=O)CS5)C4)c2n1 (centres unmarked) [Example 29, 6-({8-[2-(3-Chloro-6-methoxy-[1,5]-naphthyridin-4-yl)-2-hydroxy-ethyl]-8-aza-bicyclo[3.2.1]oct-3-ylamino}-methyl)-4H-benzo[1,4]thiazin-3-one]	≤ 2
COc1cnc2cccc(C(O)CN3C4CCC3CC(NCc3ccc5c(n3)NC(=O)CS5)C4)c2c1 (single isomer, unassigned) [Example 37, 6-({8-[2-Hydroxy-2-(3-methoxy-quinolin-5-yl)-ethyl]-8-aza-bicyclo[3.2.1]oct-3-ylamino}-methyl)-4H-pyrido[3,2-b][1,4]thiazin-3-one]	≤ 2
COc1ccc2cccc(NC(=O)C3CCCC(CNCc4ccc5c(c4)OCCO5)C3)c2n1 (centres unmarked) [Example 110, 3-{[(2,3-Dihydro-benzo[1,4]dioxin-6-ylmethyl)-amino]-methyl}-cyclohexanecarboxylic acid (2-methoxy-quinolin-8-yl)-amide]	≤ 2
COc1cnc2cccc(C(O)CN3C4CCC3CC(NCc3ccc5c(c3)OCO5)C4)c2n1 (centres unmarked) [Example 81, 2-{3-[(Benzo[1,3]dioxol-5-ylmethyl)-amino]-8-aza-bicyclo[3.2.1]oct-8-yl}-1-(3-methoxy-quinoxalin-5-yl)-ethanol]	≤ 2
COc1ccc2nccc(NC(=O)C3CCCC(CNC/C=C/c4ccccc4)C3)c2n1 (centres unmarked) [Example 22, 3-[((E)-3-Phenyl-allylamino)-methyl]-cyclohexanecarboxylic acid (6-methoxy-[1,5]-naphthyridin-4-yl)-amide]	≤ 2
COc1cnc2cccc(C(O)CN3C4CCC3CC(NCc3ccc5c(c3)NC(=O)CO5)C4)c2n1 (centres unmarked) [Example 80, 6-({8-[2-Hydroxy-2-(3-methoxy-quinoxalin-5-yl)-ethyl]-8-aza-bicyclo[3.2.1]oct-3-ylamino}-methyl)-4H-benzo[1,4]oxazin-3-one]	≤ 2
COc1cnc2cccc(C(O)CN3C4CCC3CC(NCc3ccc5c(c3)NC(=O)CS5)C4)c2n1 (centres unmarked) [Example 85, 6-({8-[2-Hydroxy-2-(3-methoxy-quinoxalin-5-yl)-ethyl]-8-aza-bicyclo[3.2.1]oct-3-ylamino}-methyl)-4H-benzo[1,4]thiazin-3-one]	≤ 2
COc1ccc2ncc(Cl)c(C(O)CN3C4CCC3CC(NCc3ccc5c(c3)OCCO5)C4)c2c1 (single isomer, unassigned) [Example 62, 1-(3-Chloro-6-methoxy-quinolin-4-yl)-2-{3-[(2,3-dihydro-benzo[1,4]dioxin-6-ylmethyl)-amino]-8-aza-bicyclo[3.2.1]oct-8-yl}-ethanol]	≤ 2
COc1ccc2ncc(Cl)c(C(O)CN3C4CCC3CC(NCc3ccc5nonc5c3)C4)c2c1 (single isomer, unassigned) [Example 59, 2-{3-[(Benzo[1,2,5]oxadiazol-5-ylmethyl)-amino]-8-aza-bicyclo[3.2.1]oct-8-yl}-1-(3-chloro-6-methoxy-quinolin-4-yl)-ethanol]	≤ 2
COc1ccc2ncc(Cl)c(C(O)CN3C4CCC3CC(NCc3ccc5nsnc5c3)C4)c2n1 (centres unmarked) [Example 26, 2-{3-[(Benzo[1,2,5]thiadiazol-5-ylmethyl)-amino]-8-aza-bicyclo[3.2.1]oct-8-yl}-1-(3-chloro-6-methoxy-[1,5]-naphthyridin-4-yl)-ethanol]	≤ 2

Other lines, results leading:

MIC [µg/mL]	Compound
≤ 2	COc1cnc2cccc(C(O)CN3CCCC(CNCc4ccc5c(c4)NC(=O)CO5)C3)c2n1 (centres unmarked) [Example 87, 6-[({1-[2-Hydroxy-2-(3-methoxy-quinoxalin-5-yl)-ethyl]-piperidin-3-ylmethyl}-amino)-methyl]-4H-benzo[1,4]oxazin-3-one]
≤ 2	COc1ccc2nccc(NC(=O)C3CCCC(CNCc4cc5c(cc4F)SCC(=O)N5)C3)c2n1 (centres unmarked) [Example 24, 3-{[(7-Fluoro-3-oxo-3,4-dihydro-2H-benzo[1,4]thiazin-6-ylmethyl)-amino]-methyl}-cyclohexanecarboxylic acid (6-methoxy-[1,5]-naphthyridin-4-yl)-amide]
≤ 2	COc1ccc2ncc(Cl)c(C(O)CN3CCCC(CNCc4cc5c(cc4F)SCC(=O)N5)C3)c2c1 (single isomer, unassigned) [Example 67, 6-[({1-[2-(3-Chloro-6-methoxy-quinolin-4-yl)-2-hydroxy-ethyl]-piperidin-3-ylmethyl}-amino)-methyl]-7-fluoro-4H-benzo[1,4]thiazin-3-one]
≤ 2	COc1ccc2nccc(C(O)CN3CCOC(CNCc4ccc5c(c4)OCCO5)C3)c2n1 (centres unmarked) [Example 31, 2-(2-{[(2,3-Dihydro-benzo[1,4]dioxin-6-ylmethyl)-amino]-methyl}-morpholin-4-yl)-1-(6-methoxy-[1,5]naphthyridin-4-yl)-ethanol]
≤ 2	COc1ccc2nccc(C(O)CN3CCCC(CNC/C=C/c4ccccc4)C3)c2n1 (single isomer, unassigned) [Example 7, 1-(6-Methoxy-[1,5]-naphthyridin-4-yl)-2-{3-[((E)-3-phenyl-allylamino)-methyl]-piperidin-1-yl}-ethanol]
≤ 2	COc1ccc2cccc(NC(=O)C3CCCC(CNCc4ccc5c(c4)NC(=O)CS5)C3)c2n1 (centres unmarked) [Example 112, 3-{[(3-oxo-3,4-dihydro-2H-benzo[1,4]thiazin-6-ylmethyl)-amino]-methyl}-cyclohexanecarboxylic acid (2-methoxy-quinolin-8-yl)-amide]
≤ 2	COc1ccc2nccc(C(O)CN3CCOC(CNCc4ccc5c(n4)NC(=O)CS5)C3)c2n1 (centres unmarked) [Example 33, 6-[({4-[2-Hydroxy-2-(6-methoxy-[1,5]naphthyridin-4-yl)-ethyl]-morpholin-2-ylmethyl}amino)-methyl]-4H-pyrido[3,2-b][1,4]thiazin-3-one]
≤ 2	COc1cnc2cccc(C(O)CN3CCCC(CNCc4ccc5c(c4)OCO5)C3)c2c1 (single isomer, unassigned) [Example 44, 2-(3-{[(Benzo[1,3]dioxol-5-ylmethyl)-amino]-methyl}-piperidin-1-yl)-1-(3-methoxy-quinolin-5-yl)-ethanol]
≤ 2	COc1ccc2ncc(Cl)c(C(O)CN3CCCC(CNC/C=C/c4ccccc4)C3)c2c1 (single isomer, unassigned) [Example 69, 1-(3-Chloro-6-methoxy-quinolin-4-yl)-2-{3-[((E)-3-phenyl-allylamino)-methyl]-piperidin-1-yl}-ethanol]
≤ 2	COc1ccc2nccc(C(O)CN3CCCC(CNCc4ccc5c(c4)NC(=O)CS5)C3)c2n1 (single isomer, unassigned) [Example 6, 6-[({1-[2-Hydroxy-2-(6-methoxy-[1,5]-naphthyridin-4-yl)-ethyl]-piperidin-3-ylmethyl}-amino)-methyl]-4H-benzo[1,4]thiazin-3-one]
≤ 2	COc1cnc2cccc(NC(=O)C3CCCC(CNCc4ccc5c(n4)NC(=O)CS5)C3)c2n1 (centres unmarked) [Example 105, 3-{[(3-Oxo-3,4-dihydro-2H-pyrido[3,2-b][1,4]thiazin-6-ylmethyl)-amino]-methyl}-cyclohexanecarboxylic acid (3-methoxy-quinoxalin-5-yl)-amide]
≤ 2	COc1cnc2cccc(C(O)CN3CCCC(CNCc4cc5c(cc4F)SCC(=O)N5)C3)c2n1 (centres unmarked) [Example 89, 7-Fluoro-6-[({1-[2-hydroxy-2-(3-methoxy-quinoxalin-5-yl)-ethyl]-piperidin-3-ylmethyl}-amino)-methyl]-4H-benzo[1,4]thiazin-3-one]
≤ 2	COc1cnc2ccc(Cl)c(C(O)CN3CCCC(CNCc4ccc5c(c4)NC(=O)CO5)C3)c2n1 (centres unmarked) [Example 93, 6-[({1-[2-(6-Chloro-3-methoxy-quinoxalin-5-yl)-2-hydroxy-ethyl]-piperidin-3-ylmethyl}-amino)-methyl]-4H-benzo[1,4]oxazin-3-one]
≤ 2	COc1ccc2nccc(NC(=O)C3CCCC(CNCc4ccc5c(n4)NC(=O)CS5)C3)c2n1 (centres unmarked) [Example 17, 3-{[(3-Oxo-3,4-dihydro-2H-pyrido[3,2-b][1,4]thiazin-6-ylmethyl)-amino]-methyl}-cyclohexanecarboxylic acid (6-methoxy-[1,5]-naphthyridin-4-yl)-amide]
≤ 2	COc1ccc2ncc(Cl)c(C(O)CN3CCOC(CNCc4ccc5c(c4)OCCO5)C3)c2c1 (single isomer, unassigned) [Example 73, 1-(3-Chloro-6-methoxy-quinolin-4-yl)-2-(2-{[(2,3-dihydro-benzo[1,4]dioxin-6-ylmethyl)-amino]-methyl}-morpholin-4-yl)-ethanol]
≤ 2	COc1cnc2ccc(Cl)c(C(O)CN3CCCC(CNCc4ccc5c(c4)OCO5)C3)c2n1 (centres unmarked) [Example 94, 2-(3-{[(Benzo[1,3]dioxol-5-ylmethyl)-amino]-methyl}-piperidin-1-yl)-1-(6-chloro-3-methoxy-quinoxalin-5-yl)-ethanol]
